Experimental data taken from patent publication US20150158810A1, “PREVENTION OR SUPPRESSION OF CYRSTALLISATION OF BORIC ACID PRESENT IN AN AQUEOUS PHASE” (COMMISSARIAT À L'ÉNERGIE ATOMIQUE ET AUX ÉNERGIES …, priority 2012, published 2015).

Assays:
[1] = crystallization of boric acid in aqueous phase, temperature cycle N; type: physicochemical
Protocol: (§1) The tests described in the examples hereafter are conducted by means of a device of the type of the one illustrated in the single FIGURE.
(§2) The device consists of a beaker 10 with a double glass wall 11, inside which flows a heat transfer fluid 12. The beaker 10 also contains a U-shaped metal tube 13, which contains a circulating heat transfer fluid 14.
(§3) The temperatures of the heat transfer fluids 12 and 14 are each adjusted independently of the other, by a heat generator (not shown in the single FIGURE).
(§4) However, the temperature of the heat transfer fluid 14 is adjusted so that it is always strictly less than that of the heat transfer fluid 12, typically lower by 1° C. to 10° C. If it is assumed that heat conduction of the material making up the metal tube 13 occurs without any notable loss, the walls of the tube 13 […] thus form a so-called ? cold ? element.
(§5) Two temperature cycles may be applied to an aqueous phase 15 containing boric acid, which is poured into the beaker 10.
A temperature cycle ? […]
(§6) Regardless of the relevant temperature cycle, a crystallization rate is defined at the end of one of these temperature cycles, which corresponds to the ratio of the mass of boric acid crystals measured at the end of this cycle, to the total initially introduced mass of boric acid.

[2] = crystallization of boric acid in aqueous phase, temperature cycle P (with a penalty); type: physicochemical
Protocol: as §1, §2, §3, §4, §5
A temperature cycle ? P ? […]
as §6

| reduction in the crystallization of boric acid in an aqueous phase in presence of the compound [1] | reduction of the crystallization of boric acid in an aqueous phase in presence of the compound [2] | SMILES |
| --- | --- | --- |
| appreciable reduction | – | NC(CO)(CO)CO [Tris, 2-amino-2-(hydroxymethyl)-propane-1,3-diol] |
| appreciable reduction | large reduction | OCC(CO)(CO)CO [pentaerythritol] |
